Experimental data as given in patent US11964956B2, “Cannabinergic compounds and uses thereof” (Northeastern University, priority 2012, dated 2024).
Read-outs that look alike come from different tables or passages of the source.

What was measured:
rCB1 [1] = target: T1, rCB1 (Rattus norvegicus, UniProt P20272); assay: rCB1 competition-equilibrium binding with [3H]CP-55,940, rat brain membranes; design: Frozen rat brains (CB1 source) are obtained from Pel-Freeze Biologicals; tissue Pel-Freeze Biologicals (Rogers, AK); host or cells: rat brain membranes
T1 sequence (P20272 whole entry): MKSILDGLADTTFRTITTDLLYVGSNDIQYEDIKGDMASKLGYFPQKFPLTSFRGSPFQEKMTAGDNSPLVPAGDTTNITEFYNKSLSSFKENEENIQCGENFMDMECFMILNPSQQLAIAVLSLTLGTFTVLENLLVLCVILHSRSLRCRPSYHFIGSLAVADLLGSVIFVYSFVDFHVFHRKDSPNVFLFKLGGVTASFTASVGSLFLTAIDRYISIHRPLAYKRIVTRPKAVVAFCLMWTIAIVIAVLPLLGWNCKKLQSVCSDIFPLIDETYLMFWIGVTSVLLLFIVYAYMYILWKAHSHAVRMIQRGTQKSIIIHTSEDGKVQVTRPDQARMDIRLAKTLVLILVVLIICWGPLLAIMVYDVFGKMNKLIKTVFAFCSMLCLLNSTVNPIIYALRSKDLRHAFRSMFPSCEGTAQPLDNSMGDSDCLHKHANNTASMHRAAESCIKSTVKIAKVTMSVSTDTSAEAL
Description: Frozen rat brains (CB1 source) are obtained from Pel-Freeze Biologicals (Rogers, AK) and stored at −80° C. until use. Membranes are prepared according to the method described by Dodd et al. and used in our laboratory as reported.
(§1) All the cannabinoids discussed in this invention are tested for their ability to bind to CB 1 and CB2 receptors using membranes from rat brain or HEK293 cells expressing either mCB2 or hCB2, respectively via competition-equilibrium binding using [^3H]CP-55,940. Results are analyzed using nonlinear regression to determine ligand IC50 (Prism by GraphPad Software, Inc.), and Ki values are calculated from the IC50. IC50 and Ki values are determined from at least three independent experiments.
(§2) Some disclosed compounds were tested for CB1 and CB2 receptor binding affinity, which can be represented by a Ki value. The Ki value is the affinity constant and describes the affinity of the compound for the receptor. […] A detailed description of the methods used to test binding affinity of compounds is given in US 2007/0135388 and in Papahatjis, et al., J. Med. Chem. (2007) 4048, the content of each of which is hereby incorporated by reference.

rCB1 [2] = target: T1, rCB1; assay: cAMP assay, rCB1; format: cell-based
Description: (§3) Functional characterization of some of the disclosed compounds was performed by using the cyclic adenosine monophosphate (cAMP) assay. The functional potency of the compound in the cAMP assay is represented by the EC50 value. The lower the EC50 value, the higher the functional potency. A detailed description of the cyclic adenosine monophosphate (cAMP) assay is given in Nikas et al. J. Med. Chem. (2010) 6996, the content of which is incorporated herein by reference. Table 10 lists the EC50 values of certain compounds of Formula (Je) in the cAMP assay.

rats = assay: Hypothermia assay (FIG. 3A); format: in vivo, rat; details: change in body temperature vs time after injection, compared to AM10843
mCB2 = target: T2, mCB2 (Mus musculus, UniProt P47936); assay: mCB2 competition-equilibrium binding with [3H]CP-55,940, HEK293 membranes
T2 construct: expressed in transfected cells; host or cells: HEK293
T2 sequence (P47936 whole entry): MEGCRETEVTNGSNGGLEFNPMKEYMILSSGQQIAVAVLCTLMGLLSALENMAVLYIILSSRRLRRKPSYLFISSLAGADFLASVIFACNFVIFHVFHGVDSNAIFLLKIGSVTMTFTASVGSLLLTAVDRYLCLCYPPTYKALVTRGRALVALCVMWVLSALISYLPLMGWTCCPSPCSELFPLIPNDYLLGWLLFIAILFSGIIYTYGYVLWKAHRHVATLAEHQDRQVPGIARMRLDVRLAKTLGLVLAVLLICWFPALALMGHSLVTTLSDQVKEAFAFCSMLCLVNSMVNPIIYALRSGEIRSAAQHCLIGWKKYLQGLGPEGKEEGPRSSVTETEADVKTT
Description: (§4) HEK293 cells expressing hCB1 or hCB2 or mCB2 receptor are used for membrane preparations according to Abadji et al. The resulting pellet is resuspended in 10 mM Tris-chloride, pH 7.4, with 5 mM MgCl2 and 2 mM EDTA (TME), rapidly frozen in liquid nitrogen and stored at −80° C. for no longer than two months. Protein content is assayed by using the Bio-Rad protein assay according to the manufacturer's protocol.
as §1, §2

hCB2 [3] = target: T3, hCB2 (Homo sapiens, UniProt P34972); assay: hCB2 competition-equilibrium binding with [3H]CP-55,940, HEK293 membranes
T3 construct: expressed in transfected cells; host or cells: HEK293
T3 sequence (P34972 whole entry): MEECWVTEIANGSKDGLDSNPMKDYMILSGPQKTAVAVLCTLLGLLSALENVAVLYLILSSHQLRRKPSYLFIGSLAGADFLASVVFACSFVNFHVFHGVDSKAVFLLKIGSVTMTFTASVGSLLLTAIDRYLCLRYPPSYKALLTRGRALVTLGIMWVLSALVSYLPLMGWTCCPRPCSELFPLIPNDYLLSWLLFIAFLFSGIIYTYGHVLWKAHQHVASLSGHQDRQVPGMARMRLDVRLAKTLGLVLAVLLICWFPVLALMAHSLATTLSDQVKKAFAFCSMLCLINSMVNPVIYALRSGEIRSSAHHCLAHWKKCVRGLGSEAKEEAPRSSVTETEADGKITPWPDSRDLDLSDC
Description: as §4, §1, §2

hCB2 [4] = target: T3, hCB2; assay: cAMP assay, hCB2; format: cell-based; details: for Emax: cAMP assay
Description: as §3

mice = assay: Analgesia assay, tail flick / tail immersion (FIG. 3B); format: in vivo, mouse; details: iso-active doses, compared with nabilone (AM10806) and AM10843
Description: Some of the disclosed compounds were tested in vivo using two well defined rodent assays for cannabinergic activity, the analgesia and the hypothermia assays. The analgesia assay (tail immersion test) determines the ability of a test compound to activate cannabinergic signaling, through modulation of cannabinoid receptors, and thereby reduce nociceptive pain. The hypothermia test determines the ability of a test compound to act as a central CB1 agonist and decrease the body temperature. […] The details of both assays are described below.
Analgesia Assay. C57BL6/J mice (Jackson Laboratories, Bar Harbor Maine) were single housed at least 1 h before start of experiment. Food and water were removed immediately before the first injection.
Route of administration=i.p. Volume=1 mL/100 g body weight.
Tail withdrawal test: 52° C. water bath (use bags). Bag was made of stapled surgery sheets to form a small pocket the size of a mouse. […] The tip of the mouse's tail was dipped into the warm water, with 1 cm submerged.

[5] = background statement; cited from earlier work

Compound | Ki (rCB1 [1]) | EC50 (rCB1 [2]) | Emax (rCB1 [2]; cAMP assay) | duration of hypothermic effect (rats) | Ki (mCB2) | Ki (hCB2 [3]) | EC50 (hCB2 [4]) | Emax (hCB2 [4]) | duration of analgesic effect (tail flick) (mice) | Ki (rCB1 [1]; Table 9, Formula (Ie), read-out: rCB1 (Ki)) | EC50 (rCB1 [2]; cAMP assay, read-out: rCB1 EC50) | Ki (mCB2; Table 9, Formula (Ie), read-out: mCB2 (Ki)) | Ki (hCB2 [3]; Table 9, Formula (Ie), read-out: hCB2 (Ki)) | slow and erratic absorption [5]
CC(C)(C(=O)OCCCC#N)c1cc(O)c2c(c1)OC(C)(C)[C@@H]1CCC(=O)C[C@@H]21 [8 AM10811, 3-Cyanopropyl-2-((6aR,10aR)-1-hydroxy-6,6-dimethyl-9-oxo-6a,7,8,9,10,10a-hexahydro-6H-benzo[c]chromen-3-yl)-2-methylpropanoate] | 0.7 ± 0.03 nM | 0.4 ± 0.06 nM | 87% | shorter acting | 1.1 ± 0.4 nM | 6.2 ± 2.7 nM | 0.1 ± 0.03 nM | 77% | – | – | – | – | – | –
CCCOC(=O)CC(C)(C)c1cc(O)c2c(c1)OC(C)(C)[C@@H]1CCC(=O)C[C@@H]21 [18 AM10819, Propyl-3-((6aR,10aR)-1-hydroxy-6,6-dimethyl-9-oxo-6a,7,8,9,10,10a-hexahydro-6H-benzo[c]chromen-3-yl)-3-methylbutanoate] | 11 ± 1.4 nM | 15.9 ± 3.6 nM | 90% | – | 26 ± 3.6 nM | 90 ± 11.3 nM | 0.2 ± 0.09 nM | 82% | shorter acting | – | – | – | – | –
CCCCOC(=O)C(C)(C)c1cc(O)c2c(c1)OC(C)(C)C1CCC(=O)CC21 (centres unmarked) [AM 10843] | – | 1 ± 0.3 nM | 83% | – | – | – | 1.1 ± 2.3 nM | 80% | – | – | – | – | – | –
CC(C)(C(=O)OCCCN=[N+]=[N-])c1cc(O)c2c(c1)OC(C)(C)[C@@H]1CCC(=O)C[C@@H]21 [Compound 9, 3-Azidopropyl-2-((6aR,10aR)-1-hydroxy-6,6-dimethyl-9-oxo-6a,7,8,9,10,10a-hexahydro-6H-benzo[c]chromen-3-yl)-2-methylpropanoate] | 0.13 nM | 0.2 nM | 52% | – | 4 nM | 3.1 nM | 2.1 nM | 87% | – | – | – | – | – | –
CCCCCOC(=O)C(C)(C)c1cc(O)c2c(c1)OC(C)(C)[C@@H]1CCC(=O)C[C@@H]21 [Compound 34c, Pentyl 2-((6aR,10aR)-1-hydroxy-6,6-dimethyl-9-oxo-6a,7,8,9,10,10a-hexahydro-6H-benzo[c]chromen-3-yl)-2-methylpropanoate] | 0.4 ± 0.01 nM | 8.9 ± 2.3 nM | 94% | – | 6.1 ± 1.1 nM | 11.5 ± 1.6 nM | 8.4 ± 1.8 nM | 46% | – | – | – | – | – | –
CC(C)(C(=O)OCCCN1CCOCC1)c1cc(O)c2c(c1)OC(C)(C)[C@@H]1CCC(=O)C[C@@H]21 [Compound 34g, 3-Morpholinopropyl 2-((6aR,10aR)-1-hydroxy-6,6-dimethyl-9-oxo-6a,7,8,9,10,10a-hexahydro-6H-benzo[c]chromen-3-yl)-2-methylpropanoate] | – | – | 78% | – | – | – | – | – | – | 17 ± 3.5 nM | 4.2 nM | 91.7 ± 20.4 nM | 18.2 ± 4.1 nM | –
CCCCSC(=O)C(C)(C)c1cc(O)c2c(c1)OC(C)(C)[C@@H]1CCC(=O)C[C@@H]21 [Compound 34h, S-Butyl 2-((6aR,10aR)-1-hydroxy-6,6-dimethyl-9-oxo-6a,7,8,9,10,10a-hexahydro-6H-benzo[c]chromen-3-yl)-2-methylpropanethioate] | 0.7 ± 0.03 nM | 0.2 ± 0.04 nM | 89% | – | 5 ± 1.4 nM | 16 ± 2.4 nM | 83.4 ± 4.7 nM | 72% | – | – | – | – | – | –
CCCCCc1cc(O)c2c(c1)OC(C)(C)[C@@H]1CCC(C)=C[C@@H]21 [Dronabinol] | – | – | – | – | – | – | – | – | – | – | – | – | – | 2 to 6 h
